Experimental data published in ChEMBL document CHEMBL4396909, “Evolution of HIV-1 reverse transcriptase and integrase dual inhibitors: Recent advances and developments” (Eur J Med Chem, 2019).

System: Human immunodeficiency virus 1
Test: Antiviral activity against HIV-1 infected in HEK293 cells preincubated for 4 hrs with cell followed by viral infection measured after 24 hrs by luciferase reporter gene assay
Type: functional, organism-based
Conditions: Human immunodeficiency virus 1, HEK293

With O=C(O)C(=O)CC(=O)c1cc(OCc2ccccc2)cc(OCc2ccccc2)c1 the IC50 was 480 nM.
